Data reported in patent US11066396B2 (priority 2016, dated 2021).

Columns and labels:
HDAC1 = HDAC1 (Homo sapiens (Human), UniProt Q13547); settings: read-out: HDAC1 IC50
HDAC8 = HDAC8 (Homo sapiens (Human), UniProt Q9BY41); settings: read-out: HDAC8 IC50
Sequence of HDAC8 (Q9BY41 whole entry): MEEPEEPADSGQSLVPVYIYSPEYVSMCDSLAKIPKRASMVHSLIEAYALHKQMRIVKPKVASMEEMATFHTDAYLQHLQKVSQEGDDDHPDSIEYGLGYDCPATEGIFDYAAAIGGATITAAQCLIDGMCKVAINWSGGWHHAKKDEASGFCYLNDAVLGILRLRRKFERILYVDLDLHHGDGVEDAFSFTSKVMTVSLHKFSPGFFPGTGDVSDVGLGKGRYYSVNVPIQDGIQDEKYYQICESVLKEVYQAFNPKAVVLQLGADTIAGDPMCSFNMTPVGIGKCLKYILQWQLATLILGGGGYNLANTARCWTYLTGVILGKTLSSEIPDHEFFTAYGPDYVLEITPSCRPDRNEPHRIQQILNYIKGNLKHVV

Sequence of HDAC1 (Q13547 whole entry): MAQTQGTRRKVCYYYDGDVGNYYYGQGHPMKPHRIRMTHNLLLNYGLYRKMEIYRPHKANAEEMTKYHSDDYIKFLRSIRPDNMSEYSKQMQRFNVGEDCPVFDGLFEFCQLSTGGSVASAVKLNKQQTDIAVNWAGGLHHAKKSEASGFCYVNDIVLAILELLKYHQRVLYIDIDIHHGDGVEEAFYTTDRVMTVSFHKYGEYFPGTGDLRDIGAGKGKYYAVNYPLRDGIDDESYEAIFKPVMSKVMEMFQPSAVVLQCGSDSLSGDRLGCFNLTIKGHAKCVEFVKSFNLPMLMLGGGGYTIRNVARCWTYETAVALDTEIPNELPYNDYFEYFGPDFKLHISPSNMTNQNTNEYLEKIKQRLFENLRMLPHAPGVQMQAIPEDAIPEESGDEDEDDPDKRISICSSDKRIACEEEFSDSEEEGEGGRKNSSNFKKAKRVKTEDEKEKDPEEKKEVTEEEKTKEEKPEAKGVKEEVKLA

SMILES	IC50 (HDAC1)	IC50 (HDAC8)
O=C1COC[C@H](CNCc2ccc(-c3noc(C(F)(F)F)n3)cn2)N1 [Example 451, (5S)-5-{[({5-[5-(trifluoromethyl)-1,2,4-oxadiazol-3-yl]pyridin-2-yl}methyl)amino]methyl}morpholin-3-one]	2500 nM	2400 nM
CS(=O)(=O)N1CC(C(=O)N(Cc2ccc(-c3noc(C(F)(F)F)n3)cn2)c2cccc(F)c2)C1 [Example 404, N-(3-fluorophenyl)-1-(methylsulfonyl)-N-({5-[5-(trifluoromethyl)-1,2,4-oxadiazol-3-yl]pyridin-2-yl}methyl)azetidine-3-carboxamide]	280 nM	1300 nM
CC1(C)CC(C(=O)N(Cc2ccc(-c3noc(C(F)(F)F)n3)cn2)c2cccc(F)c2)CCO1 (racemic) [Example 63, N-(3-fluorophenyl)-2,2-dimethyl-N-((5-(5-(trifluoromethyl)-1,2,4-oxadiazol-3-yl)pyridin-2-yl)methyl)tetrahydro-2H-pyran-4-carboxamide]	260 nM	1500 nM
COc1ccccc1C1CCC(=O)N1c1ccc(-c2noc(C(F)(F)F)n2)cc1F (racemic) [Example 315, 1-{2-fluoro-4-[5-(trifluoromethyl)-1,2,4-oxadiazol-3-yl]phenyl}-5-(2-methoxyphenyl)pyrrolidin-2-one]	2100 nM	8000 nM
CNC(=O)c1ccccc1NCc1ccc(-c2noc(C(F)(F)F)n2)cn1 [Example 444, N-methyl-2-[({5-[5-(trifluoromethyl)-1,2,4-oxadiazol-3-yl]pyridin-2-yl}methyl)amino]benzamide]	350 nM	2500 nM
Cc1ccc(C(=O)N(Cc2ccc(-c3noc(C(F)(F)F)n3)cn2)c2cccc(F)c2)nn1 [Example 400, N-(3-fluorophenyl)-6-methyl-N-({5-[5-(trifluoromethyl)-1,2,4-oxadiazol-3-yl]pyridin-2-yl}methyl)pyridazine-3-carboxamide]	260 nM	3200 nM
CC(C)(C)OC(=O)N(Cc1ccc(-c2noc(C(F)(F)F)n2)cn1)c1cccc(F)c1 [Example 91, tert-butyl (3-fluorophenyl)((5-(5-(trifluoromethyl)-1,2,4-oxadiazol-3-yl)pyridin-2-yl)methyl)carbamate]	1300 nM	19000 nM
O=C(NCc1ccccn1)c1cccc(NCc2ccc(-c3noc(C(F)(F)F)n3)cn2)c1 [Example 441, N-(pyridin-2-ylmethyl)-3-[({5-[5-(trifluoromethyl)-1,2,4-oxadiazol-3-yl]pyridin-2-yl}methyl)amino]benzamide]	490 nM	740 nM
O=C1CC[C@@H](c2nc3ccccc3[nH]2)N1c1ccc(-c2noc(C(F)(F)F)n2)cc1 [Example 21, (S)-5-(1H-Benzo[d]imidazol-2-yl)-1-(4-(5-(trifluoromethyl)-1,2,4-oxadiazol-3-yl)phenyl)pyrrolidin-2-one]	110 nM	660 nM
CC(Cn1cncn1)C(=O)N(Cc1ccc(-c2noc(C(F)(F)F)n2)cc1)c1cccc(C(F)(F)F)c1 (racemic) [Example 79, 2-methyl-3-(1H-1,2,4-triazol-1-yl)-N-(4-(5-(trifluoromethyl)-1,2,4-oxadiazol-3-yl)benzyl)-N-(3-(trifluoromethyl)phenyl)propanamide]	1300 nM	3400 nM
O=C1COC[C@@H](c2ccccc2)N1c1ccc(-c2noc(C(F)(F)F)n2)nn1 [Example 165, (R)-5-phenyl-4-(6-(5-(trifluoromethyl)-1,2,4-oxadiazol-3-yl)pyridazin-3-yl)morpholin-3-one]	28000 nM	21000 nM
O=C1CCC(NCc2ccc(-c3noc(C(F)(F)F)n3)cn2)c2ccccc2N1 (racemic) [Example 374, 5-[({5-[5-(trifluoromethyl)-1,2,4-oxadiazol-3-yl]pyridin-2-yl}methyl)amino]-1,3,4,5-tetrahydro-2H-1-benzazepin-2-one]	3200 nM	6900 nM
FC(F)(F)c1nc(-c2ccc(CNc3cnoc3)nc2)no1 [Example 434, N-({5-[5-(trifluoromethyl)-1,2,4-oxadiazol-3-yl]pyridin-2-yl}methyl)isoxazol-4-amine]	1100 nM	1200 nM
Cc1noc(C2CCCC(=O)N2c2ccc(-c3noc(C(F)(F)F)n3)cc2)n1 (racemic) [Example 48, 6-(3-methyl-1,2,4-oxadiazol-5-yl)-1-(4-(5-(trifluoromethyl)-1,2,4-oxadiazol-3-yl)phenyl)piperidin-2-one]	2200 nM	1800 nM
O=C(CN1CCS(=O)(=O)CC1)N(Cc1ccc(-c2noc(C(F)(F)F)n2)cc1)c1cccc(C(F)(F)F)c1 [Example 81, 2-(1,1-dioxidothiomorpholino)-N-(4-(5-(trifluoromethyl)-1,2,4-oxadiazol-3-yl)benzyl)-N-(3-(trifluoromethyl)phenyl)acetamide]	1300 nM	4900 nM
CN(C)CC(=O)N(Cc1ccc(-c2noc(C(F)(F)F)n2)cc1)c1cccc(C(F)(F)F)c1 [Example 83, 2-(dimethylamino)-N-(4-(5-(trifluoromethyl)-1,2,4-oxadiazol-3-yl)benzyl)-N-(3-(trifluoromethyl)phenyl)acetamide]	1200 nM	3500 nM

SMILES	IC50 (HDAC1)	IC50 (HDAC8)
CNc1ccccc1NC(=O)[C@@H]1CCC(=O)N1c1ccc(-c2noc(C(F)(F)F)n2)cc1 [Example 109, (S)-N-(2-(methylamino)phenyl)-5-oxo-1-(4-(5-(trifluoromethyl)-1,2,4-oxadiazol-3-yl)phenyl)pyrrolidine-2-carboxamide]	1000 nM	2300 nM
CC(=O)NCCC(=O)N(Cc1ccc(-c2noc(C(F)(F)F)n2)cc1)c1cccc(C(F)(F)F)c1 [Example 78, 3-acetamido-N-(4-(5-(trifluoromethyl)-1,2,4-oxadiazol-3-yl)benzyl)-N-(3-(trifluoromethyl)phenyl)propanamide]	890 nM	2300 nM
Cc1nc2c(c(=O)[nH]1)CC(NCc1ccc(-c3noc(C(F)(F)F)n3)cc1)CC2 (racemic) [Example 350, 2-methyl-6-[({4-[5-(trifluoromethyl)-1,2,4-oxadiazol-3-yl]phenyl}methyl)amino]-5,6,7,8-tetrahydroquinazolin-4(3H)-one]	1200 nM	250 nM
O=C1CCC(c2ccc(-c3noc(C(F)(F)F)n3)cc2)N1c1ccccc1F (racemic) [Example 320, 1-(2-fluorophenyl)-5-{4-[5-(trifluoromethyl)-1,2,4-oxadiazol-3-yl]phenyl}pyrrolidin-2-one]	880 nM	12000 nM
Cn1c(OCc2ccc(-c3noc(C(F)(F)F)n3)c(F)c2)nc2cccnc21 [Example 238, 2-({3-fluoro-4-[5-(trifluoromethyl)-1,2,4-oxadiazol-3-yl]phenyl}methoxy)-3-methyl-3H-imidazo[4,5-b]pyridine]	510 nM	1300 nM
Cc1n[nH]c(CC(=O)N(Cc2ccc(-c3noc(C(F)(F)F)n3)cn2)c2cccc(F)c2)n1 [Example 393, N-(3-fluorophenyl)-2-(3-methyl-1H-1,2,4-triazol-5-yl)-N-({5-[5-(trifluoromethyl)-1,2,4-oxadiazol-3-yl]pyridin-2-yl}methyl)acetamide]	410 nM	3400 nM
O=C1CC[C@@H](CN2CCOCC2)N1c1ccc(-c2noc(C(F)(F)F)n2)c(F)c1 [Example 189, (S)-1-(3-Fluoro-4-(5-(trifluoromethyl)-1,2,4-oxadiazol-3-yl)phenyl)-5-(morpholinomethyl)pyrrolidin-2-one]	15000 nM	6900 nM
O=C(C1CCOCC1)N(Cc1ccc(-c2noc(C(F)(F)F)n2)cc1)c1cccc(C(F)(F)F)c1 [Example 85, N-(4-(5-(trifluoromethyl)-1,2,4-oxadiazol-3-yl)benzyl)-N-(3-(trifluoromethyl)phenyl)tetrahydro-2H-pyran-4-carboxamide]	1200 nM	2300 nM
Cn1ccc(CN(Cc2ccc(-c3noc(C(F)(F)F)n3)cc2)c2cccc(C(F)(F)F)c2)n1 [Example 96, N-((1-methyl-1H-pyrazol-3-yl)methyl)-3-(trifluoromethyl)-N-(4-(5-(trifluoromethyl)-1,2,4-oxadiazol-3-yl)benzyl)aniline]	2400 nM	30000 nM
O=C(CC1CNCCO1)N(Cc1ccc(-c2noc(C(F)(F)F)n2)cc1)c1cccc(C(F)(F)F)c1 (racemic) [Example 82, 2-(morpholin-2-yl)-N-(4-(5-(trifluoromethyl)-1,2,4-oxadiazol-3-yl)benzyl)-N-(3-(trifluoromethyl)phenyl)acetamide]	860 nM	2500 nM
FC(F)(F)c1nc(-c2ccc(CNC3CCc4[nH]nc(C(F)(F)F)c4C3)cc2)no1 (racemic) [Example 353, 3-(trifluoromethyl)-N-({4-[5-(trifluoromethyl)-1,2,4-oxadiazol-3-yl]phenyl}methyl)-4,5,6,7-tetrahydro-1H-indazol-5-amine]	410 nM	900 nM
O=C1Nc2ccccc2CC1NCc1ccc(-c2noc(C(F)(F)F)n2)cn1 (racemic) [Example 375, 3-[({5-[5-(trifluoromethyl)-1,2,4-oxadiazol-3-yl]pyridin-2-yl}methyl)amino]-3,4-dihydroquinolin-2(1H)-one]	1000 nM	2600 nM
Fc1ccccc1C1COCCN1c1ccc(-c2noc(C(F)(F)F)n2)cn1 (racemic) [Example 135, 3-(2-fluorophenyl)-4-(5-(5-(trifluoromethyl)-1,2,4-oxadiazol-3-yl)pyridin-2-yl)morpholine]	210 nM	1300 nM
Cc1nccnc1C(=O)N(Cc1ccc(-c2noc(C(F)(F)F)n2)cn1)c1cccc(F)c1 [Example 56, N-(3-fluorophenyl)-3-methyl-N-((5-(5-(trifluoromethyl)-1,2,4-oxadiazol-3-yl)pyridin-2-yl)methyl)pyrazine-2-carboxamide]	250 nM	3100 nM
FC(F)(F)c1nc(-c2ccc(CNc3ccc4ccncc4c3)nc2)no1 [Example 370, N-({5-[5-(trifluoromethyl)-1,2,4-oxadiazol-3-yl]pyridin-2-yl}methyl)isoquinolin-7-amine]	68 nM	860 nM
